Experimental data from US5646261A, “3'-derivatized oligonucleotide analogs with non-nucleotidic groupings, their preparation and use” (Hoechst Aktiengesellschaft, priority 1992, dated 1997).
{Psoralen} = psoralen conjugate attached via phosphate

Columns and labels:
HSV-1 = experiment: Inhibition of HSV-1 viral replication in cell culture; type: cell-based, herpes simplex virus type 1
[1] = tested on: E1b (SP1 binding region of adenovirus E1b); experiment: Inhibition of transcription of E1b; conditions: as sense oligonucleotide, simulates the SP1 binding region

d(p-Nitrophenylethyl-2-oxy-pC(5'5'p)GpTpCpCpApTpGpTpCpGpGpCpApApApCpApGpCpTp-O-i-C3 H7) (DNA NNTCCATGTCGGCAAACAGCN; chemistry not fully specified) [IA-2]
inhibition of HSV-1 replication (HSV-1; cell culture, sequence I directed against mRNA of transactivator protein Vmw65, sequences II and III against splice-acceptor region of IE4/5 precursor mRNA): inhibit HSV-1 replication

"psoralen"-pGpGpTpGpTpTpTpGpGpGpGpGpTpTpGpG(5'5'S)GpTpTpGpGpGpGpT2pTpGpTpGpTpGp-"psoralen") (chain 1 NGTTGGGGGTTTGTGN; chain 2 NTTGGGGTTGTGTN; 3' {Psoralen}, sugars by position, backbone and the base at N not given here; two pieces joined 5'-5' through S linker) [IA-4, oligonucleotide modified with psoralen at both 3'-ends]
inhibition of HSV-1 replication by triplex formation (HSV-1; target: origin of replication (oriL) of the HSV-1 genome): inhibits replication of the latter by triplex formation

d(GpGpGpCpGpGpGpGpCpTpTpApApApGpG(3'5'S)CpCpTpTpTpApApGpCpCpCpCpGpCpCpCp-O- -(CH2 CH2 O)8 (CH2)13 CH3) (DNA GGGCGGGGCTTAAAGNNCTTTAAGCCCCGCCN; chemistry not fully specified) [IB-2, 3'-modified oligonucleotide analog with a 3'5'-spacer]
inhibition of transcription of E1b [1]: inhibits the transcription of E1b
